Reference: patent US6756366B1, “Orally active androgens” (Akzo Nobel N.V., priority 1999, dated 2004)

Assays:
[1] = t1/2 after incubation with human hepatocytes; type: in vitro ADME; conditions: male; cryopreserved human hepatocytes in suspension, 10 nM compound, 37° C., sampled at 0.5, 1 and 3 h, LC-MS/MS
Description: (§1) The half-life of a compound as a result of contact with human hepatocytes holds as a reliable indication of metabolic stability. As it is well known that the absorption of this class of steroids is high, this assay provides an in vitro model for oral activity in humans.
(§2) Hepatocytes collected from healthy young (25-45 year) male organ donors were cryo preserved in liquid nitrogen and kept there until use. They were thawed at 37° C. in a waterbath, placed immediately on ice, washed twice in one volume of cold (4° C.) incubation medium [William's medium E (without phenol red) with Glutamax I®, gentamicin 50 μg/ml, insulin 1 μM, hydrocortisone hemisuccinate 10 μM, fetal calf serum 0% (v/v)], counted and the viability checked by Trypan blue exclusion. Cells were incubated as suspensions in 12-wells (non-coated) plates at a nominal density of 0.5×10^6 cells/well in 1.5 ml medium at 37° C. with an air/O2/CO2 mixture (55/40/5). The plates were set on an orbital shaker at approximately 10 rpm.
(§3) The hepatocytes were incubated with 10 nM final concentration of the compound to be tested. The incubations were stopped after 0.5, 1 and 3 h by pipetting the whole incubation mixture into a glass tube and adding one volume of acetone on ice. The acetone was dried under a nitrogen flow at room temperature, the volume adjusted to 1.5 ml and the tubes were centrifuged at 4° C. at 10.000×g for 30 min. The de-proteinized supernatants were collected for LC-MS/MS analysis.

serum LH = test: LH suppression assay in mature male castrated rat model; type: in vivo; conditions: mature male castrated rats, po daily for 4 days in arachis oil suspension, serum LH 3 hours after last oral dose; for ED50: Rattus norvegicus, read-out: ED50 (po) required to suppress serum LH for 50% (±10%)
Description: The in vivo potency of several androgens of the invention was determined in a mature male castrated rat model, in comparison with MENT.
In this model serum LH is high (50× fold higher than with intact rats, due to the absence of the negative feedback of testicular testosterone). These rats are po treated for 4 days daily with a given compound of the invention in a suspension fluid of arachisoil. Before dosing and 3 hours after the last oral dose blood is collected via tail vene and in the serum LH is determined. Potency of the androgens (ED50) are expressed as the amount (mg/kg) of androgen which suppresses serum LH for 50% (±10%).
The rat LH Time-Resolved Immuno Fluorometric Assay (TR-IFMA) has been developed in house using home made reagents, a monoclonal catching antibody directed against the β-subunit of human chorion gonadotrophin (hCG, which cross react with rat β-subunit) and a biotin labelled detecting antibody (rabbit polyclonal antibody directed against the alfa-subunit of recombinant rat LH). Recombinant rat LH was prepared according to the methods described by Hakola et al (1997). In this two-site-IFMA, only intact rat LH is determined by a final incubation with streptavidin-europium. The detection in the IFMA is based on fluorescence of the lanthanide europium during a relative long exitation period. The concentration range of rat LH standard is 0.001-10 ng/ml, for optimal accuracy measurements of serum LH serum samples were diluted 8-times with assay buffer [Hakola, K., Boogaart, P. V., Mulders, J., de Leeuw, R., Schoonen, W., Heyst, J. V., Swolfs, A., Casteren, J. V., Huhtaniemi, I., and Kloosterboer, H. J., Recombinant rat luteinizing hormone; production by Chinese hamster ovary cells, purification and functional characterization, Molecular & Cellular Endocrinology 128, 47 (1997)].

human hepatocytes = test: t1/2 after incubation with human hepatocytes; type: in vitro ADME; conditions: cryopreserved human hepatocytes in suspension, 10 nM compound, 37° C., sampled at 0.5, 1 and 3 h, LC-MS/MS
Description: as §1, §2, §3

Molecule C[C@]12CC[C@H]3[C@@H]([C@H](C4CC4)CC4=CC(=O)CC[C@@H]43)[C@@H]1CC[C@@H]2O [Example 10, (7α,17β)-7-Cyclopropyl-17-hydroxyestr-4-en-3-one] has a half-life at 10 nM [1] of 30 min.

C=C[C@@H]1CC2=CC(=O)CC[C@@H]2[C@H]2CC[C@]3(CC)[C@@H](O)CC[C@H]3[C@@H]21 [Example 14, (7α,17β)-7-Ethenyl-13-ethyl-17-hydroxygon-4-en-3-one] showed a half-life at 10 nM [1] of 20 min.

With CC[C@@H]1CC2=CC(=O)CC[C@@H]2[C@H]2CC[C@]3(CC)[C@@H](O)CC[C@H]3[C@H]12 [Example 13, (7α,17β)-7,13-Diethyl-17-hydroxygon-4-en-3-one] the half-life at 10 nM [1] was 48 min.

Molecule CC[C@@H]1CC2=CC(=O)CC[C@@H]2[C@@H]2[C@@H]1[C@@H]1CC[C@H](O)[C@@]1(C)C[C@@H]2C [Example 11, (7α,11β,17β)-7-Ethyl-17-hydroxy-11-methylestr-4-en-3-one] has an ED50 (serum LH) of 5 mg/kg.

Work on C=C[C@@H]1CC2=CC(=O)CC[C@@H]2[C@H]2CC[C@]3(C)[C@@H](O)CC[C@H]3[C@@H]21 [Example 4, (7α,17β)-7-Ethenyl-17-hydroxyestr-4-en-3-one] yielded an ED50 (serum LH) of 2.5 mg/kg.

For C/C=C/[C@@H]1CC2=CC(=O)CC[C@@H]2[C@H]2CC[C@]3(C)[C@@H](O)CC[C@H]3[C@@H]21 [Example 6a, [7α(E),17β]-17-Hydroxy-7-(1-propenyl)estr-4-en-3-one], the “t1/2 after incubation with human hepatocytes” value (human hepatocytes) was 30 min.

Work on C=C[C@@H]1CC2=C/C(=N/O)CC[C@@H]2[C@H]2CC[C@]3(C)[C@@H](O)CC[C@H]3[C@@H]21 yielded a melting point of 206 to 224 °C.

Molecule CC[C@@H]1CC2=CCCC[C@@H]2[C@H]2CC[C@]3(C)[C@@H](O)CC[C@H]3[C@H]12 has a melting point of 155 to 157 °C.

Work on CC[C@@H]1CC2=C(CC[C@@H](O)C2)[C@H]2CC[C@]3(C)[C@@H](O)CC[C@H]3[C@H]12 yielded a melting point of 98 to 100 °C.

C=C[C@@H]1CC2=CC(=O)CC[C@@H]2[C@@H]2[C@@H]1[C@@H]1CC[C@H](O)[C@@]1(C)C[C@@H]2C [Example 12, (7α,11β,17β)-7-Ethenyl-17-hydroxy-11-methylestr-4-en-3-one] showed an ED50 (serum LH) of 5 mg/kg.

With CC[C@@H]1CC2=CC(=O)CC[C@@H]2[C@H]2CC[C@]3(C)[C@@H](O)CC[C@H]3[C@H]12 [Example 1, (7α,17β)-7-Ethyl-17-hydroxyestr-4-en-3-one] the ED50 (serum LH) was 2.5 mg/kg, the half-life at 10 nM [1] was 48 min and the melting point was 142.5 to 143.5 °C.

For C[C@@H]1CC2=CC(=O)CC[C@@H]2[C@H]2CC[C@]3(C)[C@@H](O)CC[C@H]3[C@@H]21 [MENT, 7α-methyl-19-nortestosterone, reference compound], the “ED50 (po) required to suppress serum LH for 50% (±10%)” value (serum LH) was 10 mg/kg and the “t1/2 after incubation with human hepatocytes” value (human hepatocytes) was 20 min.
